Patent US20240150330A1, “CHROMANS AND BENZOFURANS AS 5-HT1A AND TAAR1 AGONISTS” (Sunovion Pharmaceuticals Inc., priority 2021, published 2024)

Legend:
human 5-HT1A receptor = molecular target: T1, human 5-HT1A receptor (Homo sapiens, UniProt P08908); assay: 5-HT1A Radioligand Binding Assay; details: 1 μM test compound; competition with 0.9 nM [3H]-8-OH-DPAT; membranes of 5-HT1A expressing CHO-K1 cells
T1 construct: expressed in transfected cells; host or cells: CHO-K1
T1 sequence (P08908 1-422): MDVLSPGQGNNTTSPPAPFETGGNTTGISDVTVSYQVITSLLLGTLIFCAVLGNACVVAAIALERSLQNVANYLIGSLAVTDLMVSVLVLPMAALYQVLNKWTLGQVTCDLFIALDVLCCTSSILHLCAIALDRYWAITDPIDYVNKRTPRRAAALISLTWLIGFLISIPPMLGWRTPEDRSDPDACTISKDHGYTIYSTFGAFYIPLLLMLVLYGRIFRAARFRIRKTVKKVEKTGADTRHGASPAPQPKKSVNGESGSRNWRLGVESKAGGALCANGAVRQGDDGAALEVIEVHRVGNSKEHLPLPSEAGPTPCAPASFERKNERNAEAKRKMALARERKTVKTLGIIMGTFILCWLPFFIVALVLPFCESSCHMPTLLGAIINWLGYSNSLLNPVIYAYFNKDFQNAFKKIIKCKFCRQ
Experimental: Cells expressing the human 5-HT1A receptor were grown to mid-log phase in complete culture medium and then scraped from the culture vessels in ice-cold Ca^2+- and Mg^2+-free Phosphate-buffered saline. The cells were then centrifuged for 10 minutes at 5,000×g and 4° C. and the pellets resuspended in buffer A (15 mM Tris-HCl pH 7.5; 2 mM MgCl2; 0.3 mM EDTA; 1 mM EGTA) and homogenized in a glass-glass homogenizer. The crude membrane fraction was collected by two consecutive centrifugation steps at 35,000×g and 4° C. for 30 minutes separated by a wash step with buffer A. The final membrane pellet was suspended in buffer B (75 mM Tris-HCl pH 7.5; 12.5 mM MgCl2; 0.3 mM EDTA; 1 mM EGTA; 250 mM sucrose) and flash-frozen in liquid nitrogen. Protein content was determined by the BCA method (Interchim, UP40840A).
Radioligand competition binding was performed in duplicate in the wells of a 96 well plate (Master Block, Greiner, 786201) containing binding buffer (50 mM Tris, 5 mM CaCl2, 0.1% ascorbic acid, 10 μg/ml saponin, pH7.4), membrane extracts prepared from the 5-HT1A expressing CHO-K1 cell line (7 μg protein/well), reference tracer (0.9 nM [^3H]-8-OH-DPAT) and test compound in a final volume of 0.1 ml. Nonspecific binding was determined by co-incubation with 200-fold excess of reference competitor (5-HT). The samples were incubated for 1 hour at 25° C., and then filtered over GF/B Unifilter plates (Perkin Elmer 6005177) presoaked in 0.5% PEI, using a Filtermate Harvester (Perkin Elmer, C96162). Filters were washed six times with 0.5 ml ice-cold buffer (50 mM Tris pH 7.4) and 50 μl of Microscint 20 (Packard) were added to each well. The plates were incubated 15 minutes on an orbital shaker and then counted with a TopCount NXT (Packard, C384V01) for 1 minute/well.
Compounds were tested at 1 and 10 μM concentrations, in duplicate: […]

TAAR1 receptor = molecular target: T2, TAAR1 receptor (UniProt Q96RJ0); assay: TAAR1 Agonist cAMP Assay; format: cell-based, human or mouse; details: CHO-K1 cells expressing TAAR1; cAMP HTRF; 30 minutes at room temperature
T2 sequence (Q96RJ0 1-339): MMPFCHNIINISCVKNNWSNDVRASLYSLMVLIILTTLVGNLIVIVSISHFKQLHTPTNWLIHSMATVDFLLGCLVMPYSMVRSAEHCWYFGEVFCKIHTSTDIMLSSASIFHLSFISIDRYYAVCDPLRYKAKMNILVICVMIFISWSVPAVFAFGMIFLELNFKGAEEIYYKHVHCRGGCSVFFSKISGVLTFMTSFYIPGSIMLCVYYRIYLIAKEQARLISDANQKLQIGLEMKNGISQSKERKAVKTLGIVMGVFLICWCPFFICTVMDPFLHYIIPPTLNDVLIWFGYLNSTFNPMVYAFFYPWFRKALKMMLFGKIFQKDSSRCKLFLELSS
Experimental: CHO-K1 cells expressing the human TAAR1 receptor (Accession number NP_612200.1) or mouse TAAR1 receptor (Accession number NP_444435.1) were grown in media (Advanced DMEM supplemented with 1% dialyzed fetal bovine serum) without antibiotics. The cells were detached by gentle flushing with phosphate buffered saline containing 5 mM EDTA, recovered by centrifugation and resuspended in assay buffer (Krebs-Ringers Henseleit buffer: 5 mM KCl, 1.25 mM MgSO4, 124 mM NaCl, 25 mM HEPES, 13.3 mM Glucose, 1.25 mM KH2PO4, 1.45 mM CaCl2, 0.5 g/L BSA, supplemented with 1 mM isobutylmethylxanthine). Testing was performed in 384-well plates. 5 μl of cells (3000 cells) were mixed with 5 μl of the test compound diluted in assay buffer and then incubated for 30 minutes at room temperature. cAMP levels were determined using the Cisbio cAMP Gs dynamic HTRF kit (Cisbio, Bedford, MA). The results of the testing are shown in Table 3, with EC50 ranges designated as follows: • A=0.1 μM to 1 μM • B=0.01 μM to <0.1 μM • C=0.001 μM to <0.01 μM • D=0.0001 μM to <0.001 μM

SMILES | inhibition at 1 µM (human 5-HT1A receptor) [%] | EC50 (TAAR1 receptor) [nM]
NC[C@@H]1CCOc2c(-c3ccncc3)cccc21 [Compound 1, (R)-(8-(pyridin-4-yl)chroman-4-yl)methanamine] | > 50 | –
NC[C@H]1CCOc2c(-c3ccncc3)cccc21 [Compound 2, (S)-(8-(pyridin-4-yl)chroman-4-yl)methanamine] | > 90 | –
CNC[C@@H]1CCOc2c(-c3ccncc3)cccc21 [Compound 3, (R)—N-methyl-1-(8-(pyridin-4-yl)chroman-4-yl)methanamine] | > 50 | 10 to 100
CNC[C@H]1CCOc2c(-c3ccncc3)cccc21 [Compound 4, (S)—N-methyl-1-(8-(pyridin-4-yl)chroman-4-yl)methanamine] | > 90 | 100 to 1000
